Broadly, the EC50 is the concentration at which the effect is half-maximal. The IC50 is the midpoint of a concentration-inhibition curve. As a reminder, the inhibition is how much of the control response was suppressed.

The nature of data set [1]: Metabolite profiling of plasma, urine, feces, intravenous dose. Type of data set: in vivo, Sprague Dawley rats. Conditions: intravenous 10 mg/kg. How it is done: Nine male Sprague Dawley rats (Group 1) were designated for the pharmacokinetic phase, 3 male Sprague Dawley rats (Group 2) for the excretion mass balance phase, and 7 male Sprague Dawley rats (Group 3) and 9 male Long Evans rats (Group 4) for the tissue distribution phase. All animals received a single intravenous dose of [^14C]-25HC3S at 10 mg/kg and a target radioactivity of 225 μCi/kg. Blood samples were collected from all Group 1 animals at approximately 0.083, 0.25, 0.5, 1, 2, 4, 8, 12, 24, 48, and 72 hours post-dose. Urine and feces were collected from all Group 2 animals periodically through 168 hours post-dose. […] Following blood collection, animals were euthanized by CO2 inhalation and carcasses frozen in a dry ice/hexane bath for processing by quantitative whole body autoradiography. Whole blood, plasma, urine, feces, cage rinse, and cage wash were analyzed for total radioactivity by liquid scintillation counting.

A short description of data set [2]: Metabolite profiling of plasma and feces, oral dose. The format is in vivo, rats. How it is done: Radiolabeled components in plasma and feces extracts were profiled and identified using radio-high performance liquid chromatography (HPLC) and high performance liquid chromatography/mass spectrometry (HPLC/MS) methods.
Plasma pools were prepared for Group 1 (75 mg/kg, [^14C]-25HC3S) samples collected at 2, 4, and 6 hours post-dose. […] One metabolite M29 was identified as 25-hydroxycholesterol with 37% ROI and a concentration of 1233 ng-equiv./g.
Feces pools were prepared for Group 2 (75 mg/kg, [^14C]-25HC3S) samples collected from 0 to 24, 24 to 48, 48 to 72, 72 to 96, 96 to 120, 120 to 144, and 144 to 168 hours post-dose. A total of eleven metabolites were identified. None of the metabolites were present at ≥5% of dose. Metabolites present at 2-5% of dose were M1 (4.5% of total dose and 1%-69% ROI), M3 (4.6% of total dose and 1%-44% ROI), M4 (2.0% of total dose and 0%-10% ROI), M8 (3.1% of total dose and 1%-46% ROI), […], and M30 (3.3% of total dose and 0%-5% ROI).

In a further data set the target is DNMT1 (Homo sapiens, UniProt P26358). Put plainly: DNMT1 activity assay (Poly(dI-dC) substrate, ^3H-SAM). Type of data set: biochemical. Conditions: for EC50: read-out: EC50, activation of DNMT-1.
DNMT1, sequence (P26358 whole entry): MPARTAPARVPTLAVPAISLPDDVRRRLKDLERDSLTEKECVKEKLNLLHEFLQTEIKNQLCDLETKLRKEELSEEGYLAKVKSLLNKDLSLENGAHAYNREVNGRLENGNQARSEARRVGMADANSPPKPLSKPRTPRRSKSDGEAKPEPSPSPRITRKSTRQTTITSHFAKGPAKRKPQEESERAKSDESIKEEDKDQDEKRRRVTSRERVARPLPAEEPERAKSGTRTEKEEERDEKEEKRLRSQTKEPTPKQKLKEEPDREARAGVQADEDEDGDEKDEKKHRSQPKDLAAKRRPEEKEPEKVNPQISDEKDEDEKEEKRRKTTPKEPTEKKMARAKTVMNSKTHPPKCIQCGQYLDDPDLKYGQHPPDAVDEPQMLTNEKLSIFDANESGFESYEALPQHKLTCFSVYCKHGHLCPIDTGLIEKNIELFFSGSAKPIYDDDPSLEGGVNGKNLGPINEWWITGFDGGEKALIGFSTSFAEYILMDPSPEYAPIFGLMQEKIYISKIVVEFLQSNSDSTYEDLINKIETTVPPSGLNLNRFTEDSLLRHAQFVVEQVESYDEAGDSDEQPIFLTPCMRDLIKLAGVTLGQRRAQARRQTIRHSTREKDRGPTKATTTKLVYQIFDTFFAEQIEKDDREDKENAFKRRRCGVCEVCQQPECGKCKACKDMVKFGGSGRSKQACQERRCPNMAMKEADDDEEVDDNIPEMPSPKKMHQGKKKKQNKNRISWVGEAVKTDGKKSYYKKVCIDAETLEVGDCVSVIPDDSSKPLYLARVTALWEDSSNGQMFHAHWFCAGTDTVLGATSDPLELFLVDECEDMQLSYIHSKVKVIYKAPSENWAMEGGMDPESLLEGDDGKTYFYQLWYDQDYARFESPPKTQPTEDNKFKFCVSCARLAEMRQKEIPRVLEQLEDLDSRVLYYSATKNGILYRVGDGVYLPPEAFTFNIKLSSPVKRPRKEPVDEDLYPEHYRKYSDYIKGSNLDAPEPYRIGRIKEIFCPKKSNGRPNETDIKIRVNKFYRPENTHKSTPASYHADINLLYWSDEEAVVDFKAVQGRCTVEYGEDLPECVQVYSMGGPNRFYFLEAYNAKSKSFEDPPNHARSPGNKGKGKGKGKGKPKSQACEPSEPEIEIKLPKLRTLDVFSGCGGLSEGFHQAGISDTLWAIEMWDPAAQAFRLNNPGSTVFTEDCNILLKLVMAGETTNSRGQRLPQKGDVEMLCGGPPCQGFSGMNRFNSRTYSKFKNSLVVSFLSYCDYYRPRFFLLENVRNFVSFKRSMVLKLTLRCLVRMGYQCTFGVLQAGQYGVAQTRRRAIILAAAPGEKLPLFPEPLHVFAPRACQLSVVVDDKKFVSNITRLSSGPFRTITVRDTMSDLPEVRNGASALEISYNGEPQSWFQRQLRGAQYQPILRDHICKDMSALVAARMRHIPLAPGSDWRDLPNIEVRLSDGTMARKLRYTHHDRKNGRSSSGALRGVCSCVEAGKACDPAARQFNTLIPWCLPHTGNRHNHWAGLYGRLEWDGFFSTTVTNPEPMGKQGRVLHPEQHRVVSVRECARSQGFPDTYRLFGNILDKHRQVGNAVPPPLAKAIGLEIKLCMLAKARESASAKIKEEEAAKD
The target of another data set is DNMT3a (Homo sapiens, UniProt Q9Y6K1). Put plainly: DNMT3a activity assay (Lambda DNA substrate, ^3H-SAM). The format is biochemical.
DNMT3a, sequence (Q9Y6K1 whole entry, looked up): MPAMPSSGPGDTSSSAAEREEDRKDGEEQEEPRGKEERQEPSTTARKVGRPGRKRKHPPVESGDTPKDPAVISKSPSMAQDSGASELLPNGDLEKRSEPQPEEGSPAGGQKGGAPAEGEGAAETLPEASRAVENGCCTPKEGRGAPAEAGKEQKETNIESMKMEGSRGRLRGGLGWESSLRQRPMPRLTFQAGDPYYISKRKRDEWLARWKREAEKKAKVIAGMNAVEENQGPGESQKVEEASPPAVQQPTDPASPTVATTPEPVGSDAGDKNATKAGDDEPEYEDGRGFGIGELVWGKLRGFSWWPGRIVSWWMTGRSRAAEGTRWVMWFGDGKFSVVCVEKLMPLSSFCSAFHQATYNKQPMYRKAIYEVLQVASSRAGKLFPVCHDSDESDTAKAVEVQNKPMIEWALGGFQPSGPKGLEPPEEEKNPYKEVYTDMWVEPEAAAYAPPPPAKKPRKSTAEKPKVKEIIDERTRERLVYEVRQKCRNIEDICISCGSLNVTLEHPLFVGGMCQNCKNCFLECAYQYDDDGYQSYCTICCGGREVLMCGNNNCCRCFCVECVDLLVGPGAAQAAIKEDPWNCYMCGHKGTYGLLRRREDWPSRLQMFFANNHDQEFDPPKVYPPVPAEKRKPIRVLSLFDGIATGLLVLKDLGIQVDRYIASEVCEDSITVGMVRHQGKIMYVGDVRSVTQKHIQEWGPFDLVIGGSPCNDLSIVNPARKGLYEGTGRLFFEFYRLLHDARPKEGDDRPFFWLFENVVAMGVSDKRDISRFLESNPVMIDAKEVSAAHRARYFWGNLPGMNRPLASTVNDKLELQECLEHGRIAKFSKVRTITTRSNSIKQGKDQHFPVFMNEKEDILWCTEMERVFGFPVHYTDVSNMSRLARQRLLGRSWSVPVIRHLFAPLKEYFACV
In a further data set the target is DNMT3b (Homo sapiens, UniProt Q9UBC3). Put plainly: DNMT3b activity assay (Lambda DNA substrate, ^3H-SAM). The format is biochemical.
Another data set deals with DNMT1/3a/3b. Put plainly: Enzyme kinetic study, DNMT1/3a/3b activities overall. Type of data set: biochemical. As to conditions: for effect on enzymatic activities: controls.
The mark [3] stands for this setting: Sprague Dawley, rat, in vivo, po, 75 mg/kg.

Protocol for DNMT1/3a/3b: (§1) For the DNMT1 activity assay, the substrate solution, 0.001 mg/ml Poly(dI-dC):Poly(dI-dC) in 50 mM Tris-HCl, pH 7.5, 50 mM NaCl, 5 mM EDTA, 5 mM DTT, 1 mM PMSF, 5% glycerol, 0.01% Brij35, 1% DMSO was used. For the DNMT3a/3b activity assay, 0.0075 mg/ml Lambda DNA in 50 mM Tris-HCl, pH 7.5, 50 mM NaCl, 5 mM EDTA, 5 mM DTT, 1 mM PMSF, 5% glycerol, 1% DMSO, was used. The indicated DNMT1, DNMT3a, or DNMT3b was added to the appropriate substrate solution and gently mixed. […] The mixtures were first incubated for 15 min, then ^3H-SAM was added to the reaction mixture to initiate the reaction, and the mixture was incubated for 60 min at 30° C. Following incubation, the reaction mixture was finally transferred to filter-paper for detection of radioactivity counts.
Protocol for DNMT3a: as §1
Protocol for DNMT3b: as §1

Regarding `C[C@H](CCCC(C)(C)O)[C@H]1CC[C@H]2[C@@H]3CC=C4C[C@@H](O)CC[C@]4(C)[C@H]3CC[C@]12C` [25HC, 25-Hydroxycholesterol, reference compound], in data set [1], the “detection in plasma, urine, or feces samples” value was “Neither desmosterol sulfate nor 25-hydroxycholesterol was detected”. In data set [2] (setting [3]), the “% of total dose in feces” value is reported as 1.9 % of total dose and the ROI in feces was 0-2%. In data set [2] (Sprague Dawley, rat, in vivo, po, 75 mg/kg, 2 h), the “relative observed intensity (ROI) in plasma” value stood at 37%. Further, on DNMT1, the “activation of DNMT-1 activity” value worked out at 8 fold and the EC50 amounted to 3.5 µM.

With `CC(CO)CCC[C@@H](C)[C@H]1CC[C@H]2[C@@H]3CC=C4C[C@@H](OS(=O)(=O)O)CC[C@]4(C)[C@H]3CC[C@]12C` (stereo partly drawn) [27HC3S, 5-cholesten-3β, 27-diol 3-sulfate], the IC50 on DNMT3a amounted to 8.88 µM; on DNMT1 it was 3.58 µM; at DNMT3b, 2.68 µM.

Take `C[C@@H](CO)CCC[C@@H](C)[C@H]1CC[C@H]2[C@@H]3CC=C4C[C@@H](O)CC[C@]4(C)[C@H]3CC[C@]12C` [27HC, 27-Hydroxycholesterol]: the “effect on other enzymes” value with DNMT1/3a/3b (enzymes other than DNMT-1) is “no effect”. Moreover, the EC50 on DNMT1 stood at 33 µM.

On to `Nc1ncnc2c1ncn2[C@@H]1O[C@H](CSCC[C@H](N)C(=O)O)[C@@H](O)[C@H]1O` [SAH, S-adenosyl homocysteine], for which, on DNMT1 (read-out: inhibition of DNMT1 activity), the inhibition at 1 µM worked out at 95%.

`CC(C)CCC[C@@H](C)[C@H]1CC[C@H]2[C@@H]3CC=C4C[C@@H](OS(=O)(=O)O)CC[C@]4(C)[C@H]3CC[C@]12C` [Xol3S, 5-cholesten-3β-ol, 3-sulfate, reference compound] came in with an IC50 on DNMT3a of 82 µM. For the same molecule, the “effect on enzymatic activities” value in the data set on DNMT1/3a/3b is “did not significantly affect”.

Turning to `CC(C)CCC[C@@H](C)[C@H]1CC[C@H]2[C@@H]3CC=C4C[C@@H](O)CC[C@]4(C)[C@H]3CC[C@]12C` [Xol, Cholesterol], the “effect on enzymatic activities” value with DNMT1/3a/3b is on record as “did not significantly affect”.

As to desmosterol sulfate, the “detection in plasma, urine, or feces samples” value in data set [1] was “Neither desmosterol sulfate nor 25-hydroxycholesterol was detected”. Also, the “presence in plasma or feces samples” value in data set [2] (oral 75 mg/kg) was “not found”.

Source of the values: US20230218639A1, “USE OF OXYGENATED CHOLESTEROL SULFATES FOR TREATING NEUROLOGICAL CONDITIONS, NEURODEGENERATIVE DISEASES, AND ADDICTION” (Durect Corporation, priority 2020, published 2023).
